# Measurements published in article PMC9497675, “Explore the Interaction between Ellagic Acid and Zein Using Multi-Spectroscopy Analysis and Molecular Docking” (Foods, 2022).
# Molecular target: T1, zein
# T1 construct: gene alpha-zein
# Experiment: intrinsic fluorescence quenching (ex […] nm), modified Stern-Volmer double-log plot
# Type: binding, Zea mays
# Details: 298 K; 0.05 mg/mL zein in 70% aqueous ethanol; EA stock in 50% methanol; n = 1.2786; apparent constant
structure (smiles),measurement,value
"O=c1oc2c(O)c(O)cc3c(=O)oc4c(O)c(O)cc1c4c23 [EA, ellagic acid]",KA (L/mol),9.47 × 10^2
